PubChem BioAssay (NCI)
Where “and” joins values, the source holds several entries; their conditions need not be identical. Equal entries are not always repeated.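 Test compounds were applied to cells in 96-well plates for 48 hours at 5 doses. The concentration for 50% growth inhibition is given as GI50. TGI: concentration producing complete growth inhibition.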 Where a SMILES comes first, the peptide text is derived from it. [ ]: non-standard residue; d: D form. The star is where a group is joined. ξ: configuration not given here. X28 = COC1=CC(=O)N(C(=O)[C@@H](O*)C(C)C)[C@H]1Cc1ccccc1; X37 = O=C(OCc1ccccc1)[C@@H]1CCC[C@H]1N*; Fmoc = O=C(OCC1c2ccccc2-c2ccccc21)*; ξW = NC(Cc1c[nH]c2ccccc12)C(=O)O; NMeL = CN[C@@H](CC(C)C)C(=O)O; ξF = NC(Cc1ccccc1)C(=O)O; Hexanoyl = CCCCCC(=O)*; Boc = CC(C)(C)OC(=O)*; ξK = NCCCCC(N)C(=O)O; ξT = CC(O)C(N)C(=O)O; OBn = c1ccc(CO*)cc1; Bn = c1ccc(C*)cc1; tBu = CC(C)(C)*

Experiments:
Experiment in all cases: growth of human tumour cells (NCI), 48 h
LOX IMVI melanoma = system: LOX IMVI melanoma
HT29 colon = system: HT29 colon
DMS 114 small cell lung = system: DMS 114 small cell lung
LXFL 529 NSCLC = system: LXFL 529 NSCLC
DLD-1 colon = system: DLD-1 colon
KM20L2 colon = system: KM20L2 colon
SNB-78 CNS = system: SNB-78 CNS
M19-MEL melanoma = system: M19-MEL melanoma
DMS 273 small cell lung = system: DMS 273 small cell lung
HOP-18 NSCLC = system: HOP-18 NSCLC
XF 498 CNS = system: XF 498 CNS

Row | Structure (SMILES) | TGI (LOX IMVI melanoma) | TGI (HT29 colon) | also measured
1 | O=C(/C=C1\N=C(c2ccccc2)N(c2ccc3c(c2)Sc2cc(N4C(=O)/C(=C/C(=O)/C=C/c5ccccc5)N=C4c4ccccc4)ccc2N3)C1=O)/C=C/c1ccccc1 | 84.9 µM | > 100 µM | –
2 | COC(=O)c1nc2c(C)c(O)c(O)c([C@H](C)CCC=C(C)C)c2o1 | > 100 µM | 37 µM | –
3 | CCOC(=O)C1(C(=O)OCC)C[C@H]2CON=C2[C@@H]1c1ccc(C(F)(F)F)cc1 | 32.4 µM | > 100 µM | –
4 | COCOc1cc(OC)ccc1C=O | > 100 µM | 66.8 µM | –
5 | O=[N+]([O-])c1ccccc1S(=O)(=O)N1CCCc2cc(Cl)ccc21 | > 100 µM | 51.3 µM | –
6 | COC(=O)CP1(=O)OC2C(C3CCC2(C)C3(C)C)N1c1cc(C(F)(F)F)cc(C(F)(F)F)c1 (stereo unspecified) | 49 µM | > 100 µM | –
7 | CC1(C)COC(c2cccc(C3=NC(C)(C)CO3)c2)=N1 | > 100 µM | > 100 µM | –
8 | c1ccc(COc2nc3ccc(C45CC6CC(CC(C6)C4)C5)cc3[nH]2)cc1 | 36.5 µM | > 100 µM | –
9 | CC1(C)OC1CC/C(=C/CBr)CBr (stereo unspecified) | 22.3 µM | 30 µM | –
10 | Cc1cc2nc3c(C#N)c(-c4ccccc4)/c(=C\Nc4cccc(C(F)(F)F)c4)c(=O)n3c2cc1C | > 100 µM | – | –
11 | CCCCCC(=O)N[C@H](C(=O)N[C@H](C(=O)N(C)[C@@H](CC(C)C)C(=O)N1CCC[C@H]1C(=O)N1CCC[C@H]1C(=O)O[C@H](C(=O)N1C(=O)C=C(OC)[C@@H]1Cc1ccccc1)C(C)C)C(C)C)C(C)C (Hexanoyl-VV[NMeL]PP-X28) | > 100 µM | > 100 µM | –
12 | CC1(C(O)c2ccccc2)CN(C(C)(C)C)C(=O)/C1=C\Sc1ccccc1 (stereo unspecified) | 32.1 µM | 79.8 µM | –
13 | Cn1c2ccccc2n2c(=O)c(-c3ccc(O)cc3)nnc12 | > 100 µM | > 100 µM | –
14 | CC1(c2cccc(C3CCC4(C=CC3=O)OCCO4)c2)OCCO1 (stereo unspecified) | 27.8 µM | 25.8 µM | TGI (DMS 114 small cell lung): 3.68 µM; TGI (LXFL 529 NSCLC): 3.97 µM; TGI (DLD-1 colon): 11 µM; TGI (KM20L2 colon): 16.8 µM; TGI (SNB-78 CNS): 48.7 µM; TGI (M19-MEL melanoma): 25.8 µM; TGI (DMS 273 small cell lung): 22.9 µM
15 | O=c1[nH]c2ccc(CC(=S)N3CCN(c4ccccc4)CC3)cc2s1 | > 100 µM | > 100 µM | –
16 | CC(=O)OC(C)(C)C1CCC(C)(C(O)COc2ccc(CCNC(=O)c3ccccc3)cc2)O1 (stereo unspecified) | > 100 µM | > 100 µM | TGI (DMS 114 small cell lung): 62.2 µM; TGI (LXFL 529 NSCLC): > 100 µM; TGI (DLD-1 colon): > 100 µM; TGI (HOP-18 NSCLC): > 100 µM; TGI (KM20L2 colon): > 100 µM; TGI (SNB-78 CNS): > 100 µM; TGI (XF 498 CNS): 33.4 µM; TGI (M19-MEL melanoma): > 100 µM; TGI (DMS 273 small cell lung): > 100 µM
17 | CCOC(=O)Cc1csc(/N=C\c2c(O)c3ccccc3oc2=O)n1 | > 100 µM | > 100 µM | –
18 | CC(=O)c1nc2ccccc2n1CC(=O)c1ccc([N+](=O)[O-])cc1 | 23.2 µM | 46 µM | –

Row | Structure (SMILES) | TGI (LOX IMVI melanoma) | TGI (HT29 colon) | also measured
19 | CC(=O)NC1C(OCC(=O)NC(C)C(=O)NC(CCC(=O)NCCCCCNc2ccc([N+](=O)[O-])c3[nH]c4ccccc4c(=O)c23)C(N)=O)C(O)C(CO)OC1(C)OCc1ccccc1 (stereo unspecified) | > 50 µM | > 50 µM | –
20 | COc1cc(/C=C\c2ccc(SC)cc2)cc(OC)c1OC | 45.2 µM | 0.59 µM | TGI (DMS 114 small cell lung): 0.268 µM; TGI (LXFL 529 NSCLC): 5.38 µM; TGI (DLD-1 colon): > 100 µM; TGI (HOP-18 NSCLC): 11.6 µM; TGI (KM20L2 colon): 0.0448 µM; TGI (SNB-78 CNS): > 100 µM; TGI (XF 498 CNS): 19.8 µM; TGI (M19-MEL melanoma): > 100 µM; TGI (DMS 273 small cell lung): 1.95 µM
21 | C=C(C)C1CC2=C(C(=O)OC)C=C(O2)C(C(=C)C)[C@@H]2OC(=O)/C(=C\C1O)[C@H]2N(C)C (stereo partly specified) | 24.2 µM | > 100 µM | –
22 | CC(=O)C1=CC=C/C1=N\Nc1ccccc1 | 9.02 µM | 11.5 µM | –
23 | CC(C)(C)[C@@H]1NC(=O)CN1C(=O)OCc1ccccc1 | > 100 µM | > 100 µM | –
24 | COc1ccc(N(C(=O)OC(C)(C)C)[C@@H]2C(C)=C[C@H]([S@@](=O)c3ccc(C)cc3)[C@@H]3C(=O)N(C)C(=O)[C@@H]32)cc1 | 17.5 µM | 45.5 µM | –
25 | CC(=O)OCc1ccc(-c2nc(C#N)c(N)o2)o1 | > 10 µM | > 10 µM | –
26 | Cc1cccc(Nc2cn(CCOc3ccccc3)c(=O)[nH]c2=O)c1 | 94 µM | – | –
27 | CCCCc1ccc(N2C(=O)c3cc(C)cnc3S2(=O)=O)cc1 | > 100 µM | > 100 µM | –
28 | CC(OC(C)(C)C)C(NC(=O)C(CCCCNC(=O)OC(C)(C)C)NC(=O)C(Cc1c[nH]c2ccccc12)NC(=O)C(Cc1ccccc1)NC(=O)OCC1c2ccccc2-c2ccccc21)C(=O)NC(Cc1ccccc1)C(=O)N[C@@H]1CCC[C@H]1C(=O)OCc1ccccc1 (stereo partly specified) (Fmoc-[ξF][ξW][ξK](Boc)[ξT](tBu)[ξF]-X37) | > 100 µM | > 100 µM | –
29 | COc1ccc2cc(C(=O)NCCc3ccccc3)ccc2c1OC | > 100 µM | > 100 µM | –
30 | CC(=O)OCC1OC(n2c(-c3ccccc3)c(N=Nc3ccc(Cl)cc3)c(C)c(C#N)c2=S)C(OC(C)=O)C(OC(C)=O)C1OC(C)=O (stereo unspecified) | 43.3 µM and > 100 µM | 49.1 µM and > 100 µM | GI50 (LOX IMVI melanoma): 11.2 µM and > 100 µM; GI50 (HT29 colon): 20.1 µM and 87.7 µM
31 | COc1cc(O)c(C(=O)/C=C/c2ccc(O)cc2)cc1Oc1ccc(C(=O)/C=C/c2ccc(O)cc2)c(O)c1 | 10.7 µM | 2.66 µM | –
32 | Cc1ccc(S(=O)/C=C(\NC(=O)OCc2ccccc2)C(F)(F)F)cc1 (stereo unspecified) | > 100 µM | > 100 µM | –
33 | CC(C)CC(NC(=O)C(Cc1ccccc1)NC(=O)C(COCc1ccccc1)NC(=O)OC(C)(C)C)C(=O)OCc1ccccc1 (stereo not drawn) (Boc-Ser(Bn)-Phe-Leu-OBn; configuration not given here) | 40.1 µM | 43.9 µM | –
34 | CC(C)(C)NNc1c([N+](=O)[O-])cnn(-c2ccccc2)c1=O | 3.32 µM | 7.43 µM | TGI (LXFL 529 NSCLC): 3.25 µM; TGI (DLD-1 colon): 9.52 µM; TGI (HOP-18 NSCLC): 32 µM; TGI (KM20L2 colon): 13.1 µM; TGI (SNB-78 CNS): 58.7 µM; TGI (XF 498 CNS): 5.22 µM; TGI (M19-MEL melanoma): 5.61 µM; TGI (DMS 273 small cell lung): 10.4 µM
35 | OC(Cn1cncn1)(Cn1cncn1)c1ccc(Cl)cc1Cl | > 100 µM | > 100 µM | TGI (DMS 114 small cell lung): > 100 µM; TGI (LXFL 529 NSCLC): > 100 µM; TGI (DLD-1 colon): > 100 µM; TGI (HOP-18 NSCLC): > 100 µM; TGI (KM20L2 colon): > 100 µM; TGI (SNB-78 CNS): > 100 µM; TGI (M19-MEL melanoma): > 100 µM; TGI (DMS 273 small cell lung): > 100 µM
